Values quoted from earlier work as cited in patent US8460861B2, “Method for producing hydrogen-containing fluid able to be used in a living organism” (MIZ Co. Ltd., priority 2009, dated 2013).

Settings: 20 C degrees under 1 barometric pressure

## [HH] [molecular hydrogen]
  saturation concentration: 1.6 ppm
